Three molecules from the supplement of paper PMC11061612 can be followed below.

What all share (assay): combination Emax (second highest fraction inhibited in the dose matrix, 72 h); higher = more inhibition; extreme values may be limits of the assay
For assay [1], the system named is MHH-ES-1 (Ewing's Sarcoma). In a few lines:
(§1)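 Cell lines in DMEM/F12 or RPMI with 10% FBS were plated in 1536-well plates, held 24 hours at 37°C, 5% CO2, then given two-drug dose matrices for 72 hours (DMSO typically 0.2%). Viability was read by CellTiter-Glo 2.0 luminescence and scaled as inhibition from 0 (vehicle wells) to 1 (blank wells). Combination Emax is the second-highest inhibition in the matrix; Bliss excess is observed combination effect minus expected EA + EB − EA·EB, EA and EB being single-agent effects.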

Assay [2] relates to SK-HEP-1 (Hepatocellular Carcinoma). In a few lines: as §1
Assay [3] deals with LU-165 (Small Cell Lung Carcinoma). The procedure, abridged: as §1
Assay [4] has as its system JHH-2 (Hepatocellular Carcinoma). In a few lines:
as §1

In a further assay the test system is WM1552C (Melanoma). In a few lines: as §1
A further assay deals with IM-9 (Non-Cancerous). The procedure, abridged: as §1
Assay [5] concerns CGTH-W-1 (Thyroid Gland Carcinoma). In a few lines:
as §1

For assay [6], the system named is NCI-H2087 (Lung Adenocarcinoma). The procedure, abridged:
as §1

For assay [7], the system named is NCI-H1703 (Squamous Cell Lung Carcinoma). In a few lines: as §1
In the next assay the test system is EB2 (Burkitt's Lymphoma). In a few lines: as §1
The test system of another assay is 769-P (Kidney Carcinoma). The procedure, abridged: as §1
The test system of the next assay is EW-7 (Ewing's Sarcoma). The procedure, abridged: as §1
Assay [8] relates to A2780 (Ovarian Carcinoma). The procedure, abridged:
as §1

Assay [9] relates to HCC1395 (Breast Carcinoma). In a few lines:
as §1

Another assay concerns HCC70 (Breast Carcinoma). The procedure, abridged: as §1
Assay [10] deals with JHU-022 (Oral Cavity Carcinoma). The procedure, abridged:
as §1

For assay [11], the system named is 22RV1 (Prostate Carcinoma). In a few lines: as §1
The test system of assay [12] is NCI-H1651 (Lung Adenocarcinoma). The procedure, abridged:
as §1

Assay [13] concerns NCI-H441 (Lung Adenocarcinoma). In a few lines:
as §1

Assay [14] relates to SW620 (Colorectal Carcinoma). The procedure, abridged:
as §1

`CN(CCO)CC[C@H](CSc1ccccc1)Nc1ccc(S(=O)(=O)NC(=O)c2ccc(N3CCC([C@@H](O)c4ccccc4-c4ccc(Cl)cc4)CC3)cc2)cc1S(=O)(=O)C(F)(F)F` [AZD4320] + CCN(CCO)CCCOc1ccc2c(Nc3cc(CC(=O)Nc4cccc(F)c4)[nH]n3)ncnc2c1 [AZD2811] (first compound max 1 µM, 7x7, partner max 1 µM): the “combination Emax” value in [1] turned out to be 0.924; in assay [2] it was 0.793; in [3] it was 0.486; in [4] it was 0.169; in the assay on WM1552C (Melanoma) it was 0.481; in the assay on IM-9 (Non-Cancerous), 1. Moreover, the “combination Emax” value was found to be 0.292 in [5]; 0.464 in assay [6]; 0.473 in assay [7]; 0.338 in the assay on EB2 (Burkitt's Lymphoma); 0.752 in the assay with 769-P (Kidney Carcinoma); 0.817 in the assay on EW-7 (Ewing's Sarcoma). Further, the “combination Emax” value in [8] was 0.49; in assay [9], 0.309; in the assay with HCC70 (Breast Carcinoma), 0.66; in assay [10], 0.315; in assay [11], 0.259; in assay [12], 0.204. Further, the results for the “combination Emax” value in assay [13] and in assay [14] were 0.202 and 0.946, respectively.
Consider `CN(CCO)CC[C@H](CSc1ccccc1)Nc1ccc(S(=O)(=O)NC(=O)c2ccc(N3CCC([C@@H](O)c4ccccc4-c4ccc(Cl)cc4)CC3)cc2)cc1S(=O)(=O)C(F)(F)F` [AZD4320] + C[C@@H]1COCCN1C2=NC(=NC(=C2)C3(CC3)[S@](=N)(=O)C)C4=C5C=CNC5=NC=C4 [AZD6738] (first compound max 1 µM, 7x7, partner max 10 µM), for which the “combination Emax” value was 0.85 in assay [1]; 0.411 in assay [2]; 0.776 in [3]; 0.792 in [4]; 0.73 in the assay on WM1552C (Melanoma); 1 with IM-9 (Non-Cancerous). Moreover, the “combination Emax” value stood at 0.424 in assay [5]; 0.919 in assay [6]; 0.892 in assay [7]; 0.835 in the assay on EB2 (Burkitt's Lymphoma); 0.966 with 769-P (Kidney Carcinoma); 1 in the assay with EW-7 (Ewing's Sarcoma). The “combination Emax” value is 0.799 in assay [8]; 0.819 in assay [9]; 0.845 in the assay with HCC70 (Breast Carcinoma); 0.753 in [10]; 0.624 in assay [11]; 0.728 in assay [12]. Also, the figures for the “combination Emax” value in assay [13] and in [14] were 0.69 and 0.793, respectively.
`CN(CCO)CC[C@H](CSc1ccccc1)Nc1ccc(S(=O)(=O)NC(=O)c2ccc(N3CCC([C@@H](O)c4ccccc4-c4ccc(Cl)cc4)CC3)cc2)cc1S(=O)(=O)C(F)(F)F` [AZD4320] + Cc1cc2ncnn2cc1Nc1ncc2c(n1)n(C1CCOCC1)c(=O)n2C [AZD7648] (first compound max 1 µM, 7x7, partner max 10 µM): the “combination Emax” value was 0.497 in [1]; 0.162 in [2]; 0.516 in assay [3]; 0.448 in assay [4]; 0.143 with WM1552C (Melanoma); 0.696 in the assay on IM-9 (Non-Cancerous). Besides, the “combination Emax” value is 0.163 in assay [5]; 0.286 in assay [6]; 0.322 in assay [7]; 0.431 with EB2 (Burkitt's Lymphoma); 0.574 with 769-P (Kidney Carcinoma); 0.966 in the assay with EW-7 (Ewing's Sarcoma). Moreover, the “combination Emax” value in assay [8] amounted to 0.51; in [9], 0.263; in the assay on HCC70 (Breast Carcinoma), 0.356; in [10] it was 0.182; in assay [11], 0.426; in [12] it was 0.16. Besides, the entries for the “combination Emax” value in assay [13] and in assay [14] were 0.198 and 0.233, respectively.
